{
  "source": "paper PMC7289991",
  "about": "“Population Pharmacokinetics and Limited Sampling Strategy for Therapeutic Drug Monitoring of Polymyxin B in Chinese Patients With Multidrug-Resistant Gram-Negative Bacterial Infections” (Frontiers in Pharmacology, 2020)",
  "key": {"[1]": {"assay": "Observed AUC0-12h at steady state (linear-up-log-down method)", "type": "in vivo", "details": "human, 46 patients, steady state (day 4), intravenous, plasma, LC-MS/MS, mean ± spread", "procedure": "(§1) Blood samples were obtained after 3 days of therapy. On day 4, one blood sample (2 ml, C0h) was collected immediately at pre-dose, and five to seven blood samples (mainly C0.5h, C1h, C1.5h, C2h, C4h, C6h, and C8h) were collected at pre-next dose into EDTA tubes for each patient. To calculate AUC0–12h, C0h was regarded as C12h for those who hid not obtained C0h. All samples were centrifuged at 3,500×g for 10 min. The supernatant was collected and stored at −80°C until analysis.\nPlasma concentrations of polymyxin B were determined using liquid chromatography-tandem mass spectrometry (LC-MS/MS) in the hospital laboratory. The method was previously described by our group ([Wang et al., 2020]). […] The upper limit of quantification was extended to 20 µg/ml for polymyxin B1 and 5.0 µg/ml for polymyxin B2 after four-fold dilution. For precision and accuracy, the intra- and inter-day imprecision of polymyxin B1 and B2 was less than 13.93%, and the inaccuracy ranged from −10.87 to 11.13%. […]\nThe AUC0-12h of polymyxin B was calculated by the linear-up-log-down method. […] The observed and predicted AUC0-12h were analyzed using the Pearson correlation coefficient (r). […] The determination coefficient (r^2) evaluated the regression level of the equation. […]"}, "[2]": {"assay": "Population pharmacokinetic analysis of polymyxin B in Chinese patients (two-compartment model, Phoenix NLME)", "type": "in vivo, human", "procedure": "Patients who were ≥ 18 years of age, received intravenous polymyxin B (sulfate; polymyxin B injection, Shanghai First Biochemical Pharmaceutical Co., Ltd., China) for ≥ 72 hours, and were documented MDR Gram-negative bacterial infections were included. Patients with renal replacement therapy were excluded. Demographic characteristics (age, sex, and body weight), polymyxin B therapy, and laboratory data before polymyxin B TDM were collected from electronic medical records, including alanine aminotransferase (ALT), aspartate aminotransferase (AST), glutamyl transpeptidase (GGT), alkaline phosphatase (ALP), urea nitrogen, serum creatinine (Scr), serum uric acid, serum proteins, serum albumin, total bilirubin (TBIL), direct bilirubin (DBIL), and creatinine clearance (CrCL). CrCL was calculated using the Cockcroft-Gault equation with body weight ([Janmahasatian et al., 2005]).\nAccording to the Chinese package insert, the maintenance dose of polymyxin B was 50 to 100 million units ([…]) twice daily. The loading dose was 100 to 150 million units in clinical practice. The recommended infusion time was one hour but could be lengthened as needed. Polymyxin B treatment including dose, infusion time, and duration of therapy depended on the medical teams.\nas §1\nPlasma concentrations of polymyxin B were determined using liquid chromatography-tandem mass spectrometry (LC-MS/MS) in the hospital laboratory. The method was previously described by our group ([Wang et al., 2020]). […] The upper limit of quantification was extended to 20 µg/ml for polymyxin B1 and 5.0 µg/ml for polymyxin B2 after four-fold dilution. For precision and accuracy, the intra- and inter-day imprecision of polymyxin B1 and B2 was less than 13.93%, and the inaccuracy ranged from −10.87 to 11.13%. Since polymyxin B1 and B2 had similar structures, molecular weight, pharmacological activities, and pharmacokinetic characteristics, the plasma concentration of polymyxin B was summed to derive the total polymyxin B1 and B2 concentrations ([Tam et al., 2011]; [Manchandani et al., 2016a]).\nBased on a previously published study ([Avedissian et al., 2019]), the PK parameters were determined by one- and two-compartmental models performed using Phoenix® NLME software (v7.0, Pharsight, Mountain View, CA, USA). Initial PK parameters were estimated by the Naive-pooled model. PK models were estimated by the first-order conditional\nwhere Pi is the PK parameters of the i^th patient, θ is the population PK pharmacokinetic parameters, and ηi is a normally distributed random variable with a mean of 0 and a variance of ω^2. Intra-individual variability (residual error) is described using additive (Cobs = Cpred + ϵ), proportional [Cobs = Cpred × (1+ ϵ)] or mixed (additive + proportional) models, where Cobs and Cpred are the observed and predicted concentrations, and ϵ is an error variable with a mean of 0 and a variance of σ^2. Model assessment criteria included precision of parameter estimates (standard error), goodness-of-fit plots, and likelihood ratio test (−2LL). For the one-compartment model, basic PK parameters were the volume of central compartment distribution (V) and central compartment clearance (Cl). For the two-compartment model, there were two additional parameters as the volume of peripheral compartment distribution (V2) and inter-compartmental clearance (Q). […]"}, "[3]": {"details": "cited from earlier work", "excerpt": "To date, few studies have been conducted on population PK of polymyxin B ([Kwa et al., 2008]; [Sandri et al., 2013]; [Kubin et al., 2018]; [Manchandani et al., 2018]; [Miglis et al., 2018]). To our best knowledge, this study included the largest samples and most covariates from acutely-ill patients, aimed at evaluating the population PK of polymyxin B and identifying potential factors influencing the PK variability. The result indicated a two-compartment model adequately described population PK of polymyxin B in Chinese patients. Although there were studies performed using the one-compartment ... || The impact of clinical variables on population PK models of polymyxin B was always inconsistent, especially the influence of body weight and CrCL on polymyxin B clearance. […] With a low correlation coefficient (Supplementary Figure 1), this study found CrCL was a statistical covariate of polymyxin B clearance (Equ. 6), which was in agr ..."}, "[4]": {"details": "two-compartment population PK, 46 patients, intravenous, steady state"}},
  "note": "Positions of bridges follow the written chain, without caps; N, C: chain ends. Non-standard residues stand in square brackets, D forms with d. Residues, ends and D or L forms follow the SMILES beside them. *: point of attachment. X1 = CC[C@H](C)CCCCC(=O)*; Dab = NCC[C@H](N)C(=O)O",
  "data": [
    {"smiles": "CC[C@H](C)CCCCC(=O)N[C@@H](CCN)C(=O)N[C@H](C(=O)N[C@@H](CCN)C(=O)N[C@H]1CCNC(=O)[C@H]([C@@H](C)O)NC(=O)[C@H](CCN)NC(=O)[C@H](CCN)NC(=O)[C@H](CC(C)C)NC(=O)[C@@H](Cc2ccccc2)NC(=O)[C@H](CCN)NC1=O)[C@@H](C)O", "note": "[polymyxin B, Polymyxin B] (X1-[Dab]T[Dab][Dab][Dab][dF]L[Dab][Dab]T; lactam 4-C)", "values": [
      {"measurement": "AUC(0-t)", "setting": "[1]", "value": "43600 ± 27700", "unit": "ng·h/mL"},
      {"measurement": "dCldCrCL, bootstrap median", "setting": "[2]; 1,000 bootstrap samples", "value": 0.357},
      {"measurement": "tvCl, bootstrap median", "setting": "[2]; 1,000 bootstrap samples", "value": 1.771, "unit": "L/h"},
      {"measurement": "tvQ, bootstrap median", "setting": "[2]; 1,000 bootstrap samples", "value": 14.427, "unit": "L/h"},
      {"measurement": "tvV2, bootstrap median", "setting": "[2]; 1,000 bootstrap samples", "value": 12.073, "unit": "L"},
      {"measurement": "tvV, bootstrap median", "setting": "[2]; 1,000 bootstrap samples", "value": 5.960, "unit": "L"},
      {"measurement": "tvV, typical value of volume of central compartment distribution (V), final model estimate", "setting": "[2]; two-compartment population PK, 46 adult patients, 331 plasma samples, intravenous, steady state (day 4), LC-MS/MS, sum of polymyxin B1 and B2", "value": 6.218, "unit": "L"},
      {"measurement": "tvQ, typical value of inter-compartmental clearance (Q, Cl2), final model estimate", "setting": "[2]; [4]", "value": 13.518, "unit": "L/h"},
      {"measurement": "tvV2, typical value of volume of peripheral compartment distribution (V2), final model estimate", "setting": "[2]; [4]", "value": 11.922, "unit": "L"},
      {"measurement": "clearance value, renal insufficient group", "setting": "[3]; CrCL < 80 ml/min, P = 0.06 vs normal function group, ref Thamlikitkul et al. (2017)", "value": 2.0, "unit": "L/h"},
      {"measurement": "clearance value, normal function group", "setting": "[3]; CrCL ≥ 80 ml/min, ref Thamlikitkul et al. (2017)", "value": 2.5, "unit": "L/h"},
      {"measurement": "polymyxin B CL reported previously (range)", "setting": "[3]; earlier population PK studies, ref not given", "value": "1.87 to 2.5", "unit": "L/h"},
      {"measurement": "V estimate", "setting": "[3]; ref Sandri et al. (2013)", "value": 6.35, "unit": "L"}
    ]}
  ]
}
